This assay can be described thus: Odor detection threshold (ODT). The note with it: for ODT: Table 9. The text has this:
Within these defined water-release groups, odorants are then further described based on their experimentally determined odor detection thresholds (ODT) to further characterize the odor impact or olfactive intensity of a citrus and other olfactive types within the herein-described released group of odorants.
Upon their release in headspace, odorants are detected based on their odor detection threshold values. Odor detection thresholds are defined as the lowest concentration of odorants in a selected medium (air or water) to be detected. By including odor values of odorants in the model, one can further improve on the values for predicted performance of once odorants are released from the partition into the air.
Various databases for experimental odor detection threshold values in various partitions such as water and air are available. See Compilation of Odor and Taste Threshold Values Data, American Society for Testing and Materials, F. A. Fazzalari Editor; Booleans Aroma Chemical Information Service (BACIS)).

As to `CCC(C)C(=O)N(C)c1ccccc1` (stereo not shown) [GARDAMIDE], the ODT worked out at 24 ppb. The odt (Table 11, in ppb) amounted to 24.00. Also, the odt (Table 13, in ppb) was found to be 24.00. Where the note is “Table 15”, this molecule showed an odt of 24 ppb. The molecule further registered an odt (Table 17) of 24 ppb.

With `CCCCCCCCCCC=CC#N` [TRIDECEN 2 NITRILE], the odt turned out to be 8.7 ppb (Table 15) and 6.7 ppb (Table 17).

Molecule `CCCCCCCCCC=O` [ALDEHYDE C 10 (DECANAL), DECANAL] had an odt (Table 15) of 8.7 ppb and an odt (Table 17) of 6.7 ppb.

On to `C=CC(C)(O)CCC=C(C)C` (stereo not shown) [LINALOOL, linalool], for which the odt reads like this: (Table 15) 20 ppb; (Table 17) 20 ppb.

As to `CCCCCCCCCCCC=O` [ALDEHYDE C12 (DODECANAL), DODECANAL], the odt was 17 ppb (Table 15) and 17 ppb (Table 17).

In the case of `C=C(C)[C@H]1CC=C(C)CC1` [d-LIMONINE, d-1-Methyl-4-isopropenyl-1-cyclohexene], the ODT is reported as 430 ppb. This molecule returned an odt (Table 11, in ppb) of 430.00. In addition, the odt (Table 13, in ppb) is recorded as 430.00. Moreover, the odt (Table 15) came out at 430 ppb. For the same molecule, the odt (Table 17) was 430 ppb.

Take `CC(C)=CCCC(C)=CC=O` [CITRAL]: the odt amounted to 12.00 (Table 11, in ppb) and 12.00 (Table 13, in ppb).

Consider `CCCCCCOC(C)=O` [HEXYL ACETATE], for which the ODT was determined as 950 ppb. For the same molecule, the odt (Table 11, in ppb) came to 550.00. Besides, under “Table 13, in ppb”, the odt is reported as 950.00.

In the case of `CCCCCCCCCCCC#N` [LAURONITRILE], under “Table 13”, the odt stood at 6.7 ppb.

`C=CC(C)CCCC(C)(C)O` (stereo not shown) [DIHYDROMYRCENOL] registered an ODT of 810 ppb. Where the note is “Table 11, in ppb”, this molecule showed an odt of 819.00. Moreover, under “Table 13, in ppb”, the odt is listed as 810.00. In addition, the odt (Table 15) was found to be 810 ppb. Moreover, the odt (Table 17) turned out to be 810 ppb.

In turn, `CCCCCC1C(=O)CCC1CC(=O)OC` (stereo not shown) [METHYL DIHYDRO JASMONATE] showed an ODT of 0.23 ppb. Further, where the note is “Table 11”, the odt was determined as 0.23 ppb. In addition, for the setting “Table 13”, the odt came out at 0.23 ppb.

For the molecule `CC(C)=CCCC(C)CCO` (stereo not shown) [CITRONELLOL], the odt reads like this: (Table 11, in ppb) 29.00; (Table 13, in ppb) 29.00.

On to `CCCCCCC#CC(=O)OC` [METHYL OCTINE CARBONATE], for which the odt runs as follows: (Table 15) 9.7 ppb; (Table 17) 8.7 ppb.

`CC/C=C\CCOC(C)=O` [CIS-3-HEXENYL ACETATE] showed an ODT of 170 ppb. For the same molecule, under “Table 11, in ppb”, the odt is on record as 170.00. Besides, the odt (Table 13, in ppb) came to 170.00. In addition, the odt (Table 15) is 170 ppb. The same molecule gave an odt (Table 17) of 170 ppb.

`CC(C)CC1CCCC(C)(O)C1` (stereo not shown) [ROSSITOL] displayed an ODT of 440 ppb. For the same molecule, the odt (Table 11, in ppb) is 440.00. For the setting “Table 13, in ppb”, the odt came out at 440.00. This molecule registered an odt (Table 15) of 440 ppb. In addition, for the setting “Table 17”, the odt amounted to 120 ppb.

Molecule `C=CC(C)(O)CCC=C(C)CC` (mixture of isomers) [ETHYL LINALOOL] yielded an ODT of 120 ppb. Also, the odt (Table 11, in ppb) is given as 120.00. Further, the odt (Table 13, in ppb) was determined as 120.00. Where the note is “Table 15”, this molecule registered an odt of 120 ppb. For the same molecule, the odt (Table 17) was found to be 440 ppb.

Molecule `CC1=CCC(C=CC(C)C(C)O)C1(C)C` (stereo in doubt) [EBANOL] yielded an ODT of 54 ppb. This molecule displayed an odt (Table 11, in ppb) of 54.00. Also, under “Table 13, in ppb”, the odt was determined as 54.00.

`CCCCC/C=C\CCC=O` [CIS 4 DECENAL]: the odt was determined as 3.1 ppb (Table 15) and 3.1 ppb (Table 17).

Molecule `CCOC(=O)CC1(C)OCCO1` [APPLINAL] came in with an ODT of 55 ppb. This molecule also returned an odt (Table 11, in ppb) of 55.00. The molecule also came in with an odt (Table 13, in ppb) of 55.00.

With `CCC(C)(O)CCCC(C)C` (stereo not shown) [TETRAHYDROLINALOOL], the ODT worked out at 380 ppb. Further, the odt (Table 11, in ppb) came out at 380.00. The molecule further showed an odt (Table 13, in ppb) of 380.00.

Regarding `CCOC(=O)C(C)CC` (stereo not shown) [Ethyl 2-methylbutyrate], the ODT was 20 ppb. In addition, the odt (Table 11, in ppb) came out at 20.00. For the same molecule, the odt (Table 13, in ppb) was 20.00.

As for `CCCCCCCCCC=CC=O` [MANDARIN ALDEHYDE], the odt (Table 13) was found to be 1.5 ppb.

Turning to `CC(=O)OC(C)c1ccccc1` (stereo not shown) [STRALLYL ACETATE, STYRALLYL ACETATE], the odt was determined as 110 ppb (Table 15) and 110 ppb (Table 17).

Molecule `CC(C)=CCCC(C)CC#N` (stereo not shown) [CITRONELLYL NITRILE] came in with an ODT of 71 ppb. Moreover, the odt (Table 11, in ppb) came out at 71.00. Under “Table 13, in ppb”, this molecule showed an odt of 71.00. For the same molecule, the odt (Table 15) was 71 ppb. This molecule gave an odt (Table 17) of 71 ppb.

In turn, `C=CCOC(=O)CCC1CCCCC1` [ALLYL CYCLOHXYL PROPIONATE, ALLYL CYCLOHEXYL PROPIONATE] registered an ODT of 81 ppb. For the setting “Table 11, in ppb”, this molecule returned an odt of 81.00. The same molecule came in with an odt (Table 13, in ppb) of 61.00.

Take `CC/C=C\CC/C=C/C=O` [TRANS 2 CIS 6 NONADENAL, TRANS 2 CIS 6 NONADIENAL]: the odt by setting is: (Table 15) 0.2 ppb; (Table 17) 0.2 ppb.

`CC/C=C\CCOC(=O)c1ccccc1O` [CIS-3-HEXENYL SALICYLATE] came in with an ODT of 1.9 ppb. Besides, for the setting “Table 11”, the odt worked out at 1.9 ppb. The same molecule gave an odt (Table 13) of 1.8 ppb. This molecule registered an odt (Table 15) of 1.9 ppb. Moreover, the odt (Table 17) was found to be 1.9 ppb.

As for `CC1=CC(C)C(C=O)CC1` (stereo not shown) [LIGUSTRAL], the odt runs as follows: (Table 11, in ppb) 110.00; (Table 13, in ppb) 110.00; (Table 15) 110 ppb; (Table 17) 110 ppb.

The molecule `CCCCCCCCCCC=O` [ALDEHYDE C11] came in with an odt (Table 13) of 7.7 ppb.

With `CCCCCCCC=O` [ALDEHYDE C 8 (OCTANAL), OCTANAL], the odt runs as follows: (Table 15) 4.8 ppb; (Table 17) 4.5 ppb.

Consider `CC/C=C\CC/C=C/CO` [TRANS 2 CIS 6 NONADENOL, TRANS 2 CIS 6 NONADIENOL], for which the odt by setting is: (Table 15) 1.5 ppb; (Table 17) 1.5 ppb.

Consider `CC(C)=CCCC(C)C=O` (stereo not shown) [MELONAL], for which the odt by setting is: (Table 15) 1.5 ppb; (Table 17) 1.5 ppb.

Consider `CCC(CC)C(=O)N(C)c1cccc(C)c1` [PARADISAMIDE], for which the odt is, setting by setting: (Table 13) 0.8 ppb; (Table 15) 0.6 ppb; (Table 17) 0.6 ppb.

`CCC=C(C)C(O)CCCCC` (stereo not shown) [UNDECAVERTOL, 4-Methyl-3-decen-5-ol]: the odt came to 28 ppb (Table 15) and 28 ppb (Table 17).

In the case of `CC(C)=CCCC(C)CC=O` (stereo not shown) [CITRONELLAL], the odt runs as follows: (Table 11, in ppb) 33.00; (Table 13, in ppb) 33.00; (Table 15) 33 ppb; (Table 17) 33 ppb.

Consider `CC(CC=O)CCc1ccccc1` (stereo not shown) [MEFRANAL], for which the ODT was determined as 17 ppb. This molecule also displayed an odt (Table 11, in ppb) of 17.00. For the setting “Table 13, in ppb”, this molecule had an odt of 17.00. In addition, where the note is “Table 15”, the odt was 17 ppb. In addition, for the setting “Table 17”, the odt was found to be 17 ppb.

On to `CCOC(=O)CC(C)=O` [ETHYL ACETOACETATE], for which the ODT is recorded as 54 ppb. In addition, the odt (Table 11, in ppb) was 55.00. Moreover, the odt (Table 13, in ppb) is given as 55.00.

In the case of `CC1CC(C)(c2ccccc2)CO1` (stereo not shown) [RHUBAFURAN], the odt runs as follows: (Table 11, in ppb) 440.00; (Table 13, in ppb) 440.00; (Table 15) 440 ppb; (Table 17) 440 ppb.

(Values after patent US20100087351A1, “Perfumes for Linear Citrus Release in Rinse-Off Systems” (Quest International Services B.V., priority 2007, published 2010).)
